Test results as given in patent US20150105252A1, “SUBSTITUTED PYRAZOLES AS HERBICIDES” (E I DU PONT DE NEMOURS AND COMPANY, priority 2013, published 2015).

Key:
Assay in all cases: Test C postemergence
ryegrass, Italian = assay type: in vivo, Lolium multiflorum; details: postemergence
In short: (§1)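 Postemergence values come from plants sprayed at the 1- to 4-leaf stage (2–18 cm) in peat moss–vermiculite medium; preemergence values from seeds treated in a loam–sand blend. Both evaluated visually against controls after 13–15 greenhouse days, scale 0–100.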

wheat = assay type: in vivo, Triticum aestivum; details: postemergence
In short: as §1

galium = assay type: in vivo, Galium aparine
In short: as §1

corn = assay type: in vivo, Zea mays
In short: as §1

foxtail, giant = assay type: in vivo, Setaria faberii
In short: as §1

lambsquarters = assay type: in vivo, Chenopodium album
In short: as §1

nutsedge, yellow = assay type: in vivo, Cyperus esculentus
In short: as §1

pigweed = assay type: in vivo, Amaranthus retroflexus; details: postemergence
In short: as §1

ragweed = assay type: in vivo, Ambrosia elation; details: postemergence
In short: as §1

soybean = assay type: in vivo, Glycine max; details: postemergence
In short: as §1

barnyardgrass = assay type: in vivo, Echinochloa crus-galli
In short: as §1

oilseed rape = assay type: in vivo, Brassica napus; details: postemergence
In short: as §1

waterhemp = assay type: in vivo, Amaranthus rudis; details: postemergence, 250 g ai/ha; scale 0 to 100 (0 no effect, 100 complete control)
In short: as §1

oat, wild = assay type: in vivo, Avena fatua
In short: as §1

kochia = assay type: in vivo, Kochia scoparia
In short: as §1

[1] = 250 g ai/ha, scale 0 to 100 (0 no effect, 100 complete control)
[2] = 125 g ai/ha, scale 0 to 100, 0 no effect, 100 complete control
[3] = Postemergence, 31 g ai/ha, visually evaluated after 13 to 15 days
[4] = postemergence, 62 g ai/ha, scale 0 to 100
[5] = postemergence, 250 g ai/ha, scale 0 to 100 (0 no effect, 100 complete control)
[6] = postemergence, 125 g ai/ha, scale 0 to 100, 0 no effect, 100 complete control

With `Cc1cc(C(=O)NC(C)C)nn1Cc1ccnc(C(F)(F)F)c1` [Compound 197] the “Plant response rating, Ryegrass, Italian” value (ryegrass, Italian; [1]) was 5, the “Plant response rating, Ryegrass, Italian” value (ryegrass, Italian; [2]) was 0 and the “Plant response rating, Wheat” value (wheat; [1]) was 5. For the same compound, the “Wheat plant response rating” value (wheat; scale 0 to 100) was 5, the “Plant response rating (scale of 0 to 100 where 0 is no effect and 100 is complete control), Galium” value (galium; [3]) was 40 and the “Galium plant response rating” value (galium; [4]) was 50. The “Plant response rating, Galium” value (galium; [5]) was 85, the “Plant response rating, Galium” value (galium; [6]) was 50 and the “Plant response rating (scale of 0 to 100 where 0 is no effect and 100 is complete control), Corn” value (corn; [3]) was 5. For the same compound, the “Corn plant response rating” value (corn; [4]) was 5, the “Plant response rating, Corn” value (corn; [5]) was 10 and the “Plant response rating, Corn” value (corn; [6]) was 5. The “Plant response rating (scale of 0 to 100 where 0 is no effect and 100 is complete control), Foxtail, Giant” value (foxtail, giant; [3]) was 0, the “Foxtail, Giant plant response rating” value (foxtail, giant; [4]) was 0 and the “Plant response rating, Foxtail, Giant” value (foxtail, giant; [5]) was 10. The “Plant response rating, Foxtail, Giant” value (foxtail, giant; [6]) was 5, the “Plant response rating (scale of 0 to 100 where 0 is no effect and 100 is complete control), Lambsquarters” value (lambsquarters; [3]) was 55 and the “Lambsquarters plant response rating” value (lambsquarters; [4]) was 55. For the same compound, the “Plant response rating, Lambsquarters” value (lambsquarters; [5]) was 85, the “Plant response rating, Lambsquarters” value (lambsquarters; [6]) was 60 and the “Plant response rating (scale of 0 to 100 where 0 is no effect and 100 is complete control), Nutsedge, Yellow” value (nutsedge, yellow; [3]) was 0. The “Nutsedge, Yellow plant response rating” value (nutsedge, yellow; [4]) was 5, the “Plant response rating, Nutsedge, Yellow” value (nutsedge, yellow; [5]) was 5 and the “Plant response rating, Nutsedge, Yellow” value (nutsedge, yellow; [6]) was 10. For the same compound, the “Pigweed plant response rating” value (pigweed; 62 g ai/ha, scale 0 to 100) was 60, the “Plant response rating, Pigweed” value (pigweed; [1]) was 70 and the “Plant response rating, Pigweed” value (pigweed; [2]) was 65. For the same compound, the “Plant response rating, Ragweed” value (ragweed; [1]) was 55, the “Plant response rating, Ragweed” value (ragweed; [2]) was 40 and the “Plant response rating, Soybean” value (soybean; [1]) was 95. For the same compound, the “Soybean plant response rating” value (soybean; [2]) was 90, the “Plant response rating (scale of 0 to 100 where 0 is no effect and 100 is complete control), Barnyardgrass” value (barnyardgrass; [3]) was 0 and the “Barnyardgrass plant response rating” value (barnyardgrass; [4]) was 0. For the same compound, the “Plant response rating, Barnyardgrass” value (barnyardgrass; [5]) was 10, the “Plant response rating, Barnyardgrass” value (barnyardgrass; [6]) was 5 and the “Oilseed Rape plant response rating” value (oilseed rape; 62 g ai/ha, scale 0 to 100) was 5. The “Plant response rating, Oilseed Rape” value (oilseed rape; [1]) was 10, the “Plant response rating, Oilseed Rape” value (oilseed rape; [2]) was 20 and the “Plant response rating, Waterhemp” value (waterhemp) was 55. The “Plant response rating (scale of 0 to 100 where 0 is no effect and 100 is complete control), Oat, Wild” value (oat, wild; [3]) was 0, the “Oat, Wild plant response rating” value (oat, wild; [4]) was 0 and the “Plant response rating, Oat, Wild” value (oat, wild; [5]) was 5. For the same compound, the “Plant response rating, Oat, Wild” value (oat, wild; [6]) was 5, the “Plant response rating (scale of 0 to 100 where 0 is no effect and 100 is complete control), Kochia” value (kochia; [3]) was 40 and the “Kochia plant response rating” value (kochia; [4]) was 60. The “Plant response rating, Kochia” value (kochia; [5]) was 90 and the “Plant response rating, Kochia” value (kochia; [6]) was 85.
